Assay results reported in patent US20220213030A1, “AMINOGUANIDINE HYDRAZONES AS RETROMER STABILIZERS USEFUL FOR TREATING NEUROLOGICAL DISEASES” (OSPEDALE SAN RAFFAELE SRL, priority 2019, published 2022).

How the values were obtained:
Assay type in all cases: in vivo, mouse
VPS26 = VPS26 MFI in NeuN+ MNs of G93A mice; conditions: 10 mg/kg, day 100
Description: We next assayed retromer proteins labelling sections of mice sacrificed at day 100 for VPS35 and NeuN. […] Similarly, we observed that VPS26 levels were increased in G93A mice receiving compound 2a (FIG. 11B). We further corroborated our experimental finding observing that compound 2a increased retromer functionality. The cation-independent mannose 6-phosphate receptor (CI-MPR) is a cargo (Arighi et al., 2004) of the retromer complex that is unstable in VPS26 knockout cells (Seaman 2004). We observed a substantial reduction of CI-MPR MFI levels in MNs of vehicle-treated G93A mice when compared with WT litters (FIG. 11C). […]
Fluorescence intensity levels of VPS35, VPS26, Sortilin, CTSD and Ubiquitin were calculated using NHI-Image J software (US National Institutes of Health) according to the following protocol: stacks of confocal images were used to generate the maximal projections (Las-X) and then post-processed by NHI-Image J to crop single NeuN^+ MNs from the ventral horn of the spinal cord. We next performed background (calculated on adjacent slices only receiving secondary antibodies) subtraction for each channel, before applying the NHI-Image J mean filter (with radius 2.0 pixels) to calculate mean NeuN fluorescence levels in individual MN. […] On this selected ROI, we calculated mean fluoresce levels (MFI) of each protein.

[1] = tested on: poly-ubiquitinated proteins; experiment: Poly-ubiquitinated proteins in lumbar spinal cord of G93A mice; conditions: 10 mg/kg, day 100
Description: Ubiquitinated inclusions accumulate in MNs of sALS and fALS patients and in lumbar SCs of ALS mice (Kabashi 2001). High levels of ubiquitinated proteins may represent an overwhelmed response of MNs to protein misfolding and aggregation, as well as a reduction of lysosome functionality. We characterized poly-ubiquitinated proteins in lumbar SCs protein extracts by 10% denaturating PAGE. We included in our experiments protein extracts from Neuro2a cells treated with the proteasome inhibitor Bortezomib (BTZ), able to increase poly-ubiquitination, as an experimental control (FIG. 13A). […] We next scored ubiquitin MFI levels in ventral horn MNs of G93A mice. […] As previously observed in Neuro2a cells, the overexpression of G93A plasmids affects the Golgi apparatus, therefore we asked whether similar alterations can occur in G93A mice by labeling lumbar sections for the cis-Golgi matrix protein GM130.
Lumbar spinal cords were dissected from saline perfused mice and rapidly homogenized in the following lysis buffer: Tris-HCl 10 mM pH 8, EDTA pH 8 1 mM, NaCl 100 mM, NP40 1% and protease inhibitor cocktail (Sigma). […] Protein concentrations were measured by BCA protein assay kit (Thermofisher) according to the manufacturer's recommendations. […] Quantifications were done using the Image Lab 6.0.1 software (Bio-Rad). […]

G93A aggregates (SOD1) = experiment: Blue-native gel electrophoresis of SOD1 aggregates in G93A mice; conditions: 10 mg/kg daily, day 83 to day 103
Procedure: SOD1 mutations increase the propensity of this protein to aggregate in cells (Johnston 2000). We checked whether compound 2a could reduce the accumulation of G93A aggregates in vivo. Starting at post-natal day 83, we injected G93A mice and WT littermates daily with compound 2a (10 mg/kg). We scored motor performances in both vehicle- and compound 2a-treated G93A mice until day 103. […] At day 103, we resolved SC protein extracts by blue-native polyacrylamide gel electrophoresis, and probing these gels with anti-SOD1 antibodies we observed high molecular weight smears in G93A mice that were completely absent in WT litters. The intensity of these high molecular weight entities was lowered in mice treated with lead 2a (FIG. 14B, C). Altogether, retromer stabilization by compound 2a increases lysosomal homeostasis in vitro and in vivo, decreases poly ubiquitination of proteins, and therefore diminishes levels of G93A aggregation.
G93A mice and their WT litters were injected daily with vehicle or compound 2a (10 mg/kg, from day 83 to day 103). Lumbar spinal cords dissected from saline perfused mice were lysed in Tris-HCl 10 mM pH 8, EDTA 1 mM pH 8, NaCl 100 mM, NP40 1% and protease inhibitor cocktail (Sigma). Extracts were obtained using a tight-fitting glass Potter tissue grinder (1 ml; Wheaton). We incubated 250 μl of each extract with 100 mM Iodoacetamide (Sigma). […]

With `N=C(N)NN=Cc1cccc(C=NNC(=N)N)c1` [Compound 2a, 1,3-Bis-amino guanidine phenyl hydrazone] the “VPS26 levels (MFI)” value (VPS26) was “increased”, the “MFI levels of ubiquitin fluorescence in ventral horn MNs” value [1] was “vehicle-treated G93A MNs were higher than levels scored in compound 2a-treated G93A mice” and the “poly-ubiquitination (WB densitometry)” value [1] was “substantially reduced”. For the same compound, the “intensity of high molecular weight SOD1 entities” value (G93A aggregates (SOD1)) was “lowered”.
